US12187672B2, “1,2-diacylglycerol compound, preparation method therefor, and immunomodulator containing same as active ingredient” (ENZYCHEM LIFESCIENCES CORPORATION, priority 2018, dated 2025)

Experiments:
[1] = tested on: STAT6; experiment: IL-4-induced STAT6 activity, pGL4-STAT6 luciferase reporter in A549 cells; assay type: cell-based
Method: In DMEM (Dulbecco Modified Eagle Medium, Hyclone, Thermo Scientific) medium to which 10% Fetal Bovine Serum was added, A549 cells were subcultured at a concentration of 1×10^5 cells/ml, and culture was conducted in a 5% CO2 humidified incubator at 37° C. The cultured A549 cells were inoculated into a 48 well plate by 1×10^5 cells/ml and stabilized for 18 hours. Thereafter, pGL4-STAT6 reporter vector containing a STAT6 binding promoter portion was mixed with Attractene to induce complex formation at room temperature for 15 minutes. This complex was treated with the cells and then further incubated for 24 hours. Thereafter, the culture solution was treated with a glycerol derivative compounds of the type shown in Table 9 and 10 below for 1 hour, and then IL-4 (2 ng/ml or 10 ng/ml) was further incubated for 20 hours for STAT6 activity. Thereafter, the culture supernatant was removed for each well, and the remaining cells were lysed with a cell lysis buffer, and then cell lysate was recovered. 90 μl of luciferase reagent was mixed with 10 μl of the recovered cell lysate, and the degree of fluorescence was confirmed using a luminometer. The results are shown in Table 9, Table 10, FIG. 9 and FIG. 10 below.

[2] = tested on: STAT3; experiment: STAT3 activity, pGL4.47 SIE luciferase reporter in LPS-treated RAW264.7 cells; assay type: cell-based, mouse; details: sample 100 μg/ml 1 h, then LPS 1 μg/ml 18 h
Method: pGL4.47 [luc2P/SIE/Hygro] vector containing the sis-Inducible Element that binds to STAT3 was injected into RAW264.7 cells to confirm the degree of STAT3 activity. In DMEM (Hyclone, Thermo Scientific) medium to which 10% Fetal Bovine Serum was added, RAW264.7 cells were cultured at a concentration of 1×10^5 cells/ml, and maintained in a 5% CO2 humidified incubator at 37° C. The cultured RAW264.7 cells were inoculated into a 48 well plate by 1×10^5 cells/ml and stabilized for 18 hours. Thereafter, the pGL4.47 [luc2P/SIE/Hygro] vector containing sis-Inducible Element was mixed with Attractene to induce complex formation at room temperature for 15 minutes. This complex was treated with the cells and then further incubated for 18 hours. Thereafter, the culture solution was treated with a glycerol derivative compounds of the type shown in Table 5 below for 1 hour and then LPS (1 μg/ml) was treated and further incubated for 18 hours for STAT3 activity. Thereafter, the culture supernatant was removed for each well, and the remaining cells were lysed with a cell lysis buffer, and then cell lysate was recovered. 90 μl of luciferase reagent was mixed with 10 μl of the recovered cell lysate, and the degree of fluorescence was confirmed using a luminometer.

[3] = tested on: IL-6; experiment: LPS-induced IL-6 secretion reduction in RAW264.7 cells (ELISA); assay type: cell-based, mouse; details: sample 100 μg/ml 1 h, then LPS 1 μg/ml 24 h, Table 3
Method: In DMEM (Dulbecco Modified Eagle Medium, Hyclone, Thermo Scientific) medium to which 10% Fetal Bovine Serum was added, RAW264.7 cells, a mouse macrophage family, were suspended at a concentration of 1×10^5 cells/ml, and culture was conducted in a 5% CO2 humidified incubator at 37° C. The cultured RAW264.7 cells were inoculated into a 48 well plate by 5×10^4 cells/ml and stabilized for 15 hours. Then, the culture solution was treated with a glycerol derivative compounds of the type shown in Table 2 and 3 below for 1 hour and then was treated with 1 μg/ml of Lipopolysaccaride (LPS) of a cell stimulator, and subsequent further incubation was conducted for 24 hours. Thereafter 0.5 ml of the culture supernatant was collected for each well and centrifuged (at 3000 rpm, 5 minutes) to recover the supernatant. The IL-6 level in the recovered supernatant was measured according to the manual provided by the Mouse IL-6 ELISA set (BD Biosciences). The day before ELISA was carried out, the IL-6 capture antibody was diluted in phosphate buffered saline, coated on a microwell, and then stored at 4° C. overnight. Each well was washed three times with a buffer solution and then blocked with 2% Bovine Serum Albumin (BSA) for 1 hour at room temperature. After washing with buffer solution three times, […] of sample was dispensed into each well and left at room temperature for 2 hours. Detection antibody which was washed 3 times with washing buffer solution and diluted was dispensed into each well and allowed to react at room temperature for 1 hour and left at room temperature for 1 hour. Thereafter, the secondary HRP conjugated antibody was reacted at room temperature for 30 minutes, washed three times with a buffer solution, and treated with 50 μl of stop solution for each well, and then the optical density was measured at 450 nm with an ELISA microplate leader. The results of the IL-6 expression reduction rate (IL-6 concentration) are shown in Table 2, Table 3, FIG. 1 and FIG. 2 below.

[4] = tested on: IL-4; experiment: PKC activator-induced IL-4 secretion reduction in EL-4 cells (ELISA); assay type: cell-based, mouse; details: sample 100 μg/ml 2 h, then PKC activator 18 h, Table 12
Method: In DMEM (Dulbecco Modified Eagle Medium, Hyclone, Thermo Scientific) medium to which 10% Fetal Bovine Serum was added, EL-4 cells, a mouse lymphoma family, were subcultured at a concentration of 1×10^5 cells/ml, and culture was conducted in a 5% CO2 humidified incubator at 37° C. The cultured EL-4 cells were inoculated into a 48 well plate by 5×10^4 cells/ml and stabilized for 30 hours. Then, the culture solution was treated with a glycerol derivative compounds of the type shown in Table 11 and 12 below for 2 hours. Thereafter, it were treated with 0.5 μg/ml of PKC activator (p10, some kind of PMA) of a cell stimulator, and subsequent further incubation were conducted for 18 hours. Thereafter 0.5 ml of the culture supernatant was collected for each well and centrifuged (at 3000 rpm, 5 minutes) to recover the supernatant. The IL-4 level in the recovered supernatant was measured according to the manual provided by the Mouse IL-4 ELISA set (BD Biosciences). The day before ELISA was carried out, the IL-4 capture antibody was diluted in phosphate buffered saline, coated on a microwell, and then stored at 4° C. overnight. Each well was washed three times with a buffer solution and then blocked with 2% Bovine Serum Albumin (BSA) for 1 hour at room temperature. After washing with buffer solution three times, 100 μl of sample was dispensed into each well and left at room temperature for 2 hours. Detection antibody which was washed 3 times with washing buffer solution and diluted was dispensed into each well and allowed to react at room temperature for 1 hour and left at room temperature for 1 hour. Thereafter, the secondary HRP conjugated antibody was reacted at room temperature for 30 minutes, washed three times with buffer solution, and treated with 50 μl of stop solution for each well, and then the optical density was measured at 450 nm with an ELISA microplate leader. The results of the measured expression reduction rate ([…]) were shown in Table 11, Table 12, FIG. 11 and FIG. 12 below.

[5] = tested on: CXCL8 (IL-8); experiment: CXCL8 (IL-8) expression reduction in Gemcitabine-treated THP-1 cells (ELISA); assay type: cell-based, human; details: for CXCL8 [IL-8] concentration (average ± deviation): THP-1 cells
Method: In RPMI (Hyclone, Thermo Scientific) medium to which 10% Fetal Bovine Serum was added, THP-1 cells, a human macrophage family, were suspended at a concentration of 1×10^5 cells/ml, and culture was conducted in a 5% CO2 humidified incubator at 37° C. The cultured THP-1 cells were inoculated into a 12 well plate by 1×10^6 cells/ml and stabilized for 30 minutes. Then, the culture solution was treated with a glycerol derivative compounds of the type shown in Table 6 below for 1 hour and then was treated with Gemcitabine (2 μg/ml) of a cell stimulator, and subsequent further incubation was conducted for 24 hours. Thereafter 1.5 ml of the culture supernatant was collected for each well and centrifuged (at 3000 rpm, 5 minutes) to recover the supernatant. The CXCL8 (IL-8) level in the recovered supernatant was measured according to the manual provided by the human IL-8 ELISA set (BD Biosciences). The day before ELISA was carried out, the IL-8 capture antibody was diluted in phosphate buffered saline, coated on a microwell, and then stored at 4° C. overnight. Each well was washed three times with a buffer solution and then blocked with 2% Bovine Serum Albumin (BSA) for 1 hour at room temperature. After washing with washing buffer solution three times, 100 μl of sample was dispensed into each well and left at room temperature for 2 hours. Detection antibody which was washed 3 times with washing buffer and diluted was dispensed into each well and allowed to react at room temperature for 1 hour and left at room temperature for 1 hour. Thereafter, the secondary HRP conjugated antibody was reacted at room temperature for 30 minutes, washed three times with a washing buffer, and treated with 50 μl of stop solution for each well, and then the optical density was measured at 450 nm with an ELISA microplate leader.

[6] = tested on: HL-60 cells; experiment: Migration of HL-60 cell line toward THP-1 culture supernatant (transmigration assay); assay type: cell-based, human
Method: In RPMI (Hyclone, Thermo Scientific) medium to which 10% Fetal Bovine Serum was added, THP-1 cells, a human macrophage family, were subcultured at a concentration of 1×10^5 cells/ml, and culture was conducted in a 5% CO2 humidified incubator at 37° C. In order to prepare the THP-1 cell culture solution to be treated in the lower well during the transmigration assay, first, the cultured THP-1 cells were inoculated into a 12 well plate by 1×10^6 cells/ml and stabilized for 30 minutes. Then, the culture solution was treated with a glycerol derivative compounds of the type shown in Table 7 below for 1 hour and then was treated with Gemcitabine (2 μg/ml) of a cell stimulator, and subsequent further incubation was conducted for 24 hours. Thereafter 1.5 ml of the culture supernatant was collected for each well and centrifuged (at 3000 rpm, 5 minutes) to recover the supernatant. The CXCL8 (IL-8) level in the recovered supernatant was measured according to the manual provided by Cultrex 96 well Laminin Cell Invasion assay. The day before Transmigration assay was carried out, a 1× Lamin I solution was treated in the upper Invasion Chamber and coated. Thereafter, in RPMI (Hyclone, Thermo Scientific) medium to which 10% Fetal Bovine Serum was added, the cultured HL-60 cells were despensed of 5×10^4 cells/chamber, and 150 μl of the THP-1 culture supernatant prepared in advance was added to the lower chamber. Thereafter the upper chamber was removed, and the cells were attached to the bottom of the lower chamber by a centrifuge, and then the supernatant was removed. Cell dissociation/Calcein-AM solution was added and reacted for 1 hour. Then, the value obtained using a fluorescence spectroscopy was calculated by converting the number of cells.

[7] = sample 100 μg/ml 1 h, then IL-4 (10 ng/ml) 20 h, Table 10
[8] = THP-1 cells treated with Gemcitabine

CCCCC/C=C\C/C=C\CCCCCCCC(=O)OC(COC(=O)CCCCCCCCCCC)COC(=O)C(C)C (stereo not shown) [EC_A94]
STAT6 activity_Luciferase activity (average ± deviation) [1, 7]: 14677.5 ± 2168.7
STAT3 activity_Luciferase activity (average ± deviation) [2]: 640 ± 275.7
IL-6 concentration (average ± deviation) [3]: 0.702 ± 0.079 pg/µL
IL-4 concentration (average ± deviation) [4]: 523.8 ± 62.3 pg/µL

CCCCC/C=C\C/C=C\CCCCCCCC(=O)OC(COC(=O)CCCCCCCCCCC)COC(=O)C(C)(C)C (stereo not shown) [EC_A95]
STAT6 activity_Luciferase activity (average ± deviation) [1, 7]: 13649.0 ± 7369.3
STAT3 activity_Luciferase activity (average ± deviation) [2]: 663 ± 61.5
IL-6 concentration (average ± deviation) [3]: 0.777 ± 0.020 pg/µL
IL-4 concentration (average ± deviation) [4]: 680.1 ± 12.2 pg/µL

CCCCC/C=C\C/C=C\CCCCCCCC(=O)OC(COC(=O)CCCCCCCC)COC(=O)CCCCCCCCCCCCCCC (stereo not shown) [EC_A84]
CXCL8 [IL-8] concentration (average ± deviation) ([5]; sample 100 μg/ml 1 h, then Gemcitabine 2 μg/ml 24 h): 110.5 ± 6.8 pg/µL
Number of HL-60 cells migrated through Transwell ([6]; supernatant of THP-1 cells treated with sample 100 μg/ml 1 h, then Gemcitabine 2 μg/ml 24 h): 2197.8 Cell Number
STAT3 activity_Luciferase activity (average ± deviation) [2]: 780 ± 27.5
IL-6 concentration (average ± deviation) [3]: 0.799 ± 0.025 pg/µL
IL-4 concentration (average ± deviation) [4]: 615.6 ± 25.0 pg/µL

Nc1ccn([C@@H]2O[C@H](CO)[C@@H](O)C2(F)F)c(=O)n1 [Gemcitabine, reference compound]
increase of CXCL8 (IL-8) secretion compared to the negative control group [5, 8]: about 13 times
CXCL8 [IL-8] concentration (average ± deviation) ([5]; Gemcitabine 2 μg/ml alone): 104.6 ± 1.5 pg/µL
increase of neutrophil cell migration compared to the negative control group [6, 8]: about twice
Number of HL-60 cells migrated through Transwell ([6]; supernatant of THP-1 cells treated with Gemcitabine 2 μg/ml alone): 5022.9 Cell Number

B1: IL-4: IL-4 used to induce STAT6 activity in A549 cells (protein, UniProt P05112 25-153, looked up)
Interleukin-4: HKCDITLQEIIKTLNSLTEQKTLCTELTVTDIFAASKNTTEKETFCRAATVLRQFYSHHEKDTRCLGATAQQFHRHKQLIRFLKRLDRNLWGLAGLNSCPVKEANQSTLENFLERLKTIMREKYSKCSS
STAT6 activity_Luciferase activity (average ± deviation) ([1]; IL-4 alone, concentration printed 2 (head μg/ml; method 2 ng/ml), Table 9): 982.0 ± 38.7
STAT6 activity_Luciferase activity (average ± deviation) ([1]; IL-4 alone, concentration printed 10 (head μg/ml; method 10 ng/ml), Table 10): 22846.2 ± 2157.3
